Laboratory results reported in ChEMBL document CHEMBL5518220, “The Discovery of 7-Isopropoxy-2-(1-methyl-2-oxabicyclo[2.1.1]hexan-4-yl)-N-(6-methylpyrazolo[1,5-a]pyrimidin-3-yl)imidazo[1,2-a]pyrimidine-6-carboxamide (BIO-7488), a Potent, Selective, and CNS-Penetrant IRAK4 Inhibitor for the Treatment of Ischemic Stroke” (J Med Chem, 2024).

What was measured:
[1] = Volume of distribution at steady state in cynomolgus monkey at 1 mg/kg, iv by LC-MS/MS analysis; assay type: ADME, organism-based, Macaca fascicularis; conditions: in vivo, read-out: Vdss
[2] = Oral bioavailability in cynomolgus monkey at 1 mg/kg by LC-MS/MS analysis; assay type: ADME, organism-based, Macaca fascicularis; conditions: in vivo
[3] = Half life in mouse at 1 mg/kg, iv by LC-MS/MS analysis; assay type: ADME, organism-based; conditions: in vivo
[4] = Unbound clearance in cynomolgus monkey at 1 mg/kg, iv by LC-MS/MS analysis; assay type: ADME, organism-based, Macaca fascicularis; conditions: in vivo
[5] = Volume of distribution at steady state in rat at 1 mg/kg, iv by LC-MS/MS analysis; assay type: ADME, organism-based; conditions: in vivo, read-out: Vdss
[6] = Clearance in mouse at 1 mg/kg, iv by LC-MS/MS analysis; assay type: ADME, organism-based; conditions: in vivo
Mus musculus [7] = assay: Inhibition of LPS-induced IL-6 production in po dosed female C57BL/6 mouse assessed as reduction in IL-6 level in plasma administered via oral gavage for 60 mins followed by LPS stimulation at 0.5 mg/kg, ip measured after 90 mins by ELISA; assay type: functional, organism-based
[8] = AUCinfinity in rat at 1 mg/kg, iv by LC-MS/MS analysis; assay type: ADME, organism-based; conditions: in vivo
[9] = Metabolic stability in human hepatocytes assessed as intrinsic clearance; assay type: ADME, cell-based, Hepatocyte; conditions: read-out: CLH
[10] = AUCinfinity in cynomolgus monkey at 1 mg/kg, iv by LC-MS/MS analysis; assay type: ADME, organism-based, Macaca fascicularis; conditions: in vivo
[11] = molecular target: T1, Dual specificity mitogen-activated protein kinase kinase 5 (Homo sapiens) (UniProt Q13163); assay: Binding affinity to MEK5 (unknown origin) at 100 to 1000 nM relative to control; conditions: dose 100-1000 nM
T1 sequence (whole entry): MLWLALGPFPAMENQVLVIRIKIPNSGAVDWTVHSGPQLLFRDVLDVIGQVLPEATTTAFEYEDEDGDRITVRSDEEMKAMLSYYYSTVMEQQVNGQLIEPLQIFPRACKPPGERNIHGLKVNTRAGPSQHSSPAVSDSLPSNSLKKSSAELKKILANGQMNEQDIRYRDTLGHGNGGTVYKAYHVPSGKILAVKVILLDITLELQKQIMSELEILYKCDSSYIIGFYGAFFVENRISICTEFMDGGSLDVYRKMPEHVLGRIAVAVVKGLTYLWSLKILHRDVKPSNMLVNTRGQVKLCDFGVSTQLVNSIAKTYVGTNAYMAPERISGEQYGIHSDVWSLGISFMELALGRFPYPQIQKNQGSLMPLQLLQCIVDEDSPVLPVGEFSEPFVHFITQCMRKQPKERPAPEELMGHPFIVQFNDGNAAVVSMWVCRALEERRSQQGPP

[12] = Tmax in dog at 1 mg/kg, po by LC-MS/MS analysis; assay type: ADME, organism-based, Canis lupus familiaris; conditions: in vivo
[13] = Half life in rat at 1 mg/kg, iv by LC-MS/MS analysis; assay type: ADME, organism-based; conditions: in vivo
[14] = Clearance in rat at 1 mg/kg, iv by LC-MS/MS analysis; assay type: ADME, organism-based; conditions: in vivo
[15] = Oral bioavailability in rat at 1 mg/kg by LC-MS/MS analysis; assay type: ADME, organism-based; conditions: in vivo
Mus musculus [16] = assay: Inhibition of LPS-induced IL-1beta production in po dosed female C57BL/6 mouse assessed as reduction in IL-1beta level in plasma administered via oral gavage for 60 mins followed by LPS stimulation at 0.5 mg/kg, ip measured after 90 mins by ELISA; assay type: functional, organism-based
[17] = Half life in dog at 1 mg/kg, iv by LC-MS/MS analysis; assay type: ADME, organism-based, Canis lupus familiaris; conditions: in vivo
[18] = Volume of distribution at steady state in dog at 1 mg/kg, iv by LC-MS/MS analysis; assay type: ADME, organism-based, Canis lupus familiaris; conditions: in vivo, read-out: Vdss
[19] = Tmax in cynomolgus monkey at 1 mg/kg, po by LC-MS/MS analysis; assay type: ADME, organism-based, Macaca fascicularis; conditions: in vivo
[20] = Free drug level in male C57BL/6 mouse plasma at 10 mg/kg, po qd measured on 3 to 7 days; assay type: ADME, organism-based; conditions: in vivo, time 3-7 day
[21] = AUCinfinity in dog at 1 mg/kg, iv by LC-MS/MS analysis; assay type: ADME, organism-based, Canis lupus familiaris; conditions: in vivo
[22] = Metabolic stability in human liver microsomes assessed as intrinsic clearance; assay type: ADME, Microsome; conditions: read-out: CLH
[23] = Unbound clearance in dog at 1 mg/kg, iv by LC-MS/MS analysis; assay type: ADME, organism-based, Canis lupus familiaris; conditions: in vivo
[24] = Inhibition of […] induced IL-1beta production in human whole blood preincubated for 1 hr followed by R848 stimulation and measured after 4 hrs by MSD assay; assay type: functional, tissue-based
[25] = Lipophilicity, logD of compound in n-octanol and aqueous buffer at pH 7.4 by RP-HPLC method; assay type: physicochemical
[26] = Oral bioavailability in mouse at 1 mg/kg by LC-MS/MS analysis; assay type: ADME, organism-based; conditions: in vivo
Mus musculus [27] = assay: Inhibition of LPS-induced TNF-alpha production in po dosed female C57BL/6 mouse assessed as reduction in TNF-alpha level in plasma administered via oral gavage for 60 mins followed by LPS stimulation at 0.5 mg/kg, ip measured after 90 mins by ELISA; assay type: functional, organism-based
[28] = Clearance in cynomolgus monkey at 1 mg/kg, iv by LC-MS/MS analysis; assay type: ADME, organism-based, Macaca fascicularis; conditions: in vivo
[29] = Volume of distribution at steady state in mouse at 1 mg/kg, iv by LC-MS/MS analysis; assay type: ADME, organism-based; conditions: in vivo, read-out: Vdss
[30] = Oral bioavailability in dog at 1 mg/kg by LC-MS/MS analysis; assay type: ADME, organism-based, Canis lupus familiaris; conditions: in vivo
[31] = Unbound clearance in rat at 1 mg/kg, iv by LC-MS/MS analysis; assay type: ADME, organism-based; conditions: in vivo
[32] = AUCinfinity in mouse at 1 mg/kg, iv by LC-MS/MS analysis; assay type: ADME, organism-based; conditions: in vivo
[33] = Tmax in mouse at 1 mg/kg, po by LC-MS/MS analysis; assay type: ADME, organism-based; conditions: in vivo
[34] = Half life in cynomolgus monkey at 1 mg/kg, iv by LC-MS/MS analysis; assay type: ADME, organism-based, Macaca fascicularis; conditions: in vivo
[35] = Tmax in rat at 1 mg/kg, po by LC-MS/MS analysis; assay type: ADME, organism-based; conditions: in vivo
[36] = Clearance in dog at 1 mg/kg, iv by LC-MS/MS analysis; assay type: ADME, organism-based, Canis lupus familiaris; conditions: in vivo
[37] = Unbound clearance in mouse at 1 mg/kg, iv by LC-MS/MS analysis; assay type: ADME, organism-based; conditions: in vivo

Work on `Cc1cnc2c(NC(=O)c3cn4cc(C56COC(C)(C5)C6)nc4nc3OC(C)C)cnn2c1` yielded a Vd [1] of 1.7 L/kg, a bioavailability [2] of 95% and a half-life [3] of 5 h. For the same molecule, the CL free [4] was 14 mL/min/kg, the Vd [5] was 2.2 L/kg and the clearance [6] was 1.8 mL/min/kg. The inhibition (Mus musculus [7]) was “Dose-Dependent Effect”, the AUC(0-inf) [8] was 6530 ng·h/mL and the CLint scaled [9] was 2.5 mL/min/kg. The AUC(0-inf) [10] was 6440 ng·h/mL, the Activity [11] was > 80% and the Tmax [12] was 2.6 h. The half-life [13] was 12 h, the clearance [14] was 2.1 mL/min/kg and the bioavailability [15] was 91%. For the same molecule, the inhibition (Mus musculus [16]) was “Dose-Dependent Effect”, the half-life [17] was 10 h and the Vd [18] was 2.8 L/kg. For the same molecule, the Tmax [19] was 2 h, the “Cp(f)” value [20] was 10 nM and the AUC(0-inf) [21] was 3190 ng·h/mL. The CLint scaled [22] was < 5 mL/min/kg, the CL free [23] was 5.3 mL/min/kg and the IC50 ([24]; Homo sapiens, Blood) was 200 nM. The fIC50 ([24]; time 5 hrs) was 13 nM, the logD [25] was 2.9 and the bioavailability [26] was 98%. The inhibition (Mus musculus [27]) was “Dose-Dependent Effect”, the clearance [28] was 2.7 mL/min/kg and the Vd [29] was 0.75 L/kg. The bioavailability [30] was 96%, the CL free [31] was 30 mL/min/kg and the AUC(0-inf) [32] was 9460 ng·h/mL. The Tmax [33] was 1 h, the half-life [34] was 8.3 h and the Tmax [35] was 4.7 h. For the same molecule, the clearance [36] was 3.5 mL/min/kg and the CL free [37] was 19 mL/min/kg.
